From US4018801A, “Substituted oxirane compounds” (The Dow Chemical Company, priority 1975, dated 1977) come the findings set out here.

What all share (assay): Pre-emergent control of seed germination, soil drench
Holding throughout (type): in vivo

For one experiment, the system named is Barnyard Grass. Conditions: Barnyard Grass, about 2 weeks. The gist of the method: (§1)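 Compound formulated with Span 85/Tween 80 in acetone, dispersed in water, and applied as a soil drench to seeded beds at 1.0, 2.0 and 5.0 lb/acre (about 1.6, 3.2, 8.0 ppm soil); lower concentrations also tested. Germination control scored versus untreated checks after about 2 weeks.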

Another experiment concerns Wild Oats. Particulars: Wild Oats, about 2 weeks. In a few lines:
as §1

The next experiment has as its system Crabgrass. Conditions: for Percent Pre-Emergent Control of Seed Germination: Crabgrass, about 2 weeks; for % Control: pre-emergence, Crab Grass.
The next experiment concerns Johnson Grass. Particulars: Johnson Grass; for Percent Pre-Emergent Control of Seed Germination: about 2 weeks; for % Control: pre-emergence.
Another experiment deals with Cultured Rice. Particulars: about 2 weeks. An excerpt:
(§2) Four parts by weight of the compound, 0.08 part of sorbitan trioleate (Span 85), and 0.02 part of a sorbitan monooleate polyoxyethylene derivative (Tween 80) are dipersed in 40 milliliters of acetone to produce a concentrate composition in the form of a water-dispersible liquid containing the predetermined oxirane compound as the sole active agent.
(§3) A portion of each of these concentrate compositions were separately dispersed in portions of water to provide aqueous compositions, containing 0.44 pound of the oxirane compound per 100 gallons of ultimate aqueous mixture.
(§4) The aqueous compositions were then employed for the treatment of seed beds of good agricultural soil which had been prepared and seeded with the seeds of various grass species and broadleaf plants. The grass species included white winter wheat, cultured rice, pigweeds, crabgrass, cheat grass, wild oats, Johnson grass, barnyard grass and yellow foxtail; and the broadleaf plants included corn. In the treating operations, a predetermined quantity of each of the compositions was applied to separate seedbeds as a soil drench at a rate of about 0.43 acre inch of aqueous composition per acre. The quantities were controlled to supply a substantial uniform dosage in a seedbed equivalent to 1.0, 2.0 and 5.0 pounds of the oxirane compound per acre. These dosages correspond, respectively, to a concentration, within the soil depth penetrated of about 1.6, 3.2 and 8.0 parts by weight of the oxirane compound per million parts by weight of soil. Other seedbeds were similarly seeded with the named plant species but were left untreated to serve as checks.
(§5) After about 2 weeks the seedbeds were examined to ascertain what control of the growth of seeds had been obtained.
(§6) An aqueous composition containing 2-(α,α,α -trifluoro-m-tolyl)-2-(2,2,2-trichloroethyl)oxirane was prepared as described in Example 32. The composition was then employed according to the procedures of Example 32 except that lower concentrations of the oxirane compound were employed in the composition.
(§7) The percent control of the various plant species at the employed dosage rate of the 2-(α,α,α-trifluoro-m-tolyl)- 2-(2,2,2-trichloroethyl) supplied by the composition is set forth in the following Table IV.

A further experiment relates to White Winter Wheat. Particulars: about 2 weeks.
Source text: as §2, §3, §4, §5, §6, §7

As for `ClC(Cl)(Cl)CC1(c2cccc(Br)c2)CO1` (stereo not drawn) [Example 3, 2-(m-bromophenyl)-2-(2,2,2-trichloroethyl)oxirane], the “Percent Pre-Emergent Control of Seed Germination” value (shortened to “Percent Pre-Emergent Control”) stood at 95% in the experiment on Barnyard Grass (1.0 pounds per surface acre); 95% with Barnyard Grass (2.0 pounds per surface acre); 95% with Barnyard Grass (5.0 pounds per surface acre); 100% in the experiment on Wild Oats (1.0 pounds per surface acre); 100% with Wild Oats (2.0 pounds per surface acre); 100% in the experiment on Wild Oats (5.0 pounds per surface acre). Further, the “Percent Pre-Emergent Control” value in the experiment on Crabgrass (1.0 pounds per surface acre) came to 0%; in the experiment on Crabgrass (2.0 pounds per surface acre) it was 100%; with Crabgrass (5.0 pounds per surface acre), 100%; in the experiment on Johnson Grass (1.0 pounds per surface acre), 95%; with Johnson Grass (2.0 pounds per surface acre), 95%; with Johnson Grass (5.0 pounds per surface acre), 100%. The “Percent Pre-Emergent Control” value in the experiment on Cultured Rice (2.0 pounds per surface acre), in the experiment on Cultured Rice (5.0 pounds per surface acre), in the experiment with White Winter Wheat (1.0 pounds per surface acre), with White Winter Wheat (2.0 pounds per surface acre) and in the experiment with White Winter Wheat (5.0 pounds per surface acre) was 100% each time. In addition, the “% Control” value with Crabgrass (1/8 Lb/Acre) came out at 95%; in the experiment on Crabgrass (1/16 Lb/Acre), 70%; in the experiment with Johnson Grass (1/8 Lb/Acre) it was 95%; in the experiment with Johnson Grass (1/16 Lb/Acre) it was 95%.
